Test results from the NIST ThermoML archive (doi:10.1016/j.fluid.2011.01.001).

What was measured:
[1] = 101.33 kPa, Liquid, Vibrating tube method
[2] = refractive index (Na D-line) (dimensionless); settings: 101.33 kPa, Liquid, Standard Abbe refractometry
[3] = mn = molality of the nth substance listed, in mol/kg; settings: 101 kPa, Liquid, Vibrating tube method

CCn1cc[n+](C)c1.COS(=O)(=O)[O-] [1-ethyl-3-methylimidazolium methylsulfate]
Settings	mass density, 298.15 K [kg/m3]	mass density, 308.15 K [kg/m3]	mass density, 318.15 K [kg/m3]	mass density, 328.15 K [kg/m3]	refractive index, 298.15 K	refractive index, 308.15 K	refractive index, 318.15 K	refractive index, 328.15 K
[1]	1361.2	1333.2	1319.2	1300.3	–	–	–	–
[2]	–	–	–	–	1.4822	1.4782	1.4759	1.4704

CCn1cc[n+](C)c1.COS(=O)(=O)[O-] [1-ethyl-3-methylimidazolium methylsulfate] + O
mass density [kg/m3], [3]
Settings	298.15 K	308.15 K	318.15 K	328.15 K
m1 = 0.0166	998.28	995.1	991.05	985.78
m1 = 0.0244	998.78	995.59	991.42	986.12
m1 = 0.0302	999.18	995.94	991.68	986.36
m1 = 0.0372	999.58	996.31	992	986.62
m1 = 0.0702	1001.29	997.81	993.46	987.97
m1 = 0.077	1001.59	998.05	993.68	988.23
m1 = 0.0961	1002.25	998.74	994.43	988.9
m1 = 0.1191	1003.09	999.51	995.31	989.75
m1 = 0.1346	1003.69	999.99	995.93	990.36
m1 = 0.1823	1005.3	1002.08	997.93	992.14
m1 = 0.3343	1011.4	1008.04	1003.88	997.71
m1 = 0.4226	1014.99	1011.67	1007.18	1000.86
m1 = 0.5486	1020.29	1017.02	1011.85	1005.32
m1 = 0.573	998.28	1018.1	1012.71	1006.1

CCCCCCn1cc[n+](C)c1.CCOS(=O)(=O)[O-] [1-hexyl-3-methylimidazolium ethyl sulfate]
Settings	mass density, 298.15 K [kg/m3]	mass density, 308.15 K [kg/m3]	mass density, 318.15 K [kg/m3]	mass density, 328.15 K [kg/m3]	refractive index, 298.15 K	refractive index, 308.15 K	refractive index, 318.15 K	refractive index, 328.15 K
[1]	1137.54	1130.74	1124.29	1117.81	–	–	–	–
[2]	–	–	–	–	1.4677	1.4636	1.4596	1.4566

CCCCCCn1cc[n+](C)c1.CCOS(=O)(=O)[O-] [1-hexyl-3-methylimidazolium ethyl sulfate] + O
mass density [kg/m3], [3]
Settings	298.15 K	308.15 K	318.15 K	328.15 K
m1 = 0.0113	997.55	994.52	990.63	985.41
m1 = 0.0347	998.58	995.5	991.48	986.2
m1 = 0.0419	998.9	995.8	991.73	986.44
m1 = 0.0614	999.73	996.6	992.41	987.07
m1 = 0.0677	1000	996.84	992.62	987.28
m1 = 0.1085	1001.65	998.38	994	988.57
m1 = 0.2177	1005.67	1002.07	997.31	991.8
m1 = 0.3501	1010	1005.78	1000.86	995.29
m1 = 0.433	1012.3	1007.9	1002.92	997.21
m1 = 0.5618	1015.56	1010.89	1005.91	1000.07
m1 = 0.7474	1019.59	1014.5	1009.79	1003.7
m1 = 0.8741	1021.74	1016.59	1012.03	1005.94
m1 = 1.17	1025.65	1020.79	1016.28	1010.91
m1 = 1.343	1027.8	1023.36	1018.31	1013.65

CCCCCCn1cc[n+](C)c1.COS(=O)(=O)[O-] [1-hexyl-3-methylimidazolium methyl sulfate]
Settings	mass density, 298.15 K [kg/m3]	mass density, 308.15 K [kg/m3]	mass density, 318.15 K [kg/m3]	mass density, 328.15 K [kg/m3]	refractive index, 298.15 K	refractive index, 308.15 K	refractive index, 318.15 K	refractive index, 328.15 K
[1]	1156.93	1150.32	1143.84	1137.38	–	–	–	–
[2]	–	–	–	–	1.4733	1.4708	1.4683	1.4654

CCCCCCn1cc[n+](C)c1.COS(=O)(=O)[O-] [1-hexyl-3-methylimidazolium methyl sulfate] + O
mass density [kg/m3], [3]
Settings	298.15 K	308.15 K	318.15 K	328.15 K
m1 = 0.0118	997.55	994.47	990.58	985.32
m1 = 0.0314	998.37	995.17	991.17	985.78
m1 = 0.0497	999.1	995.8	991.69	986.21
m1 = 0.076	1000.09	996.65	992.4	986.8
m1 = 0.0937	1000.68	997.19	992.86	987.21
m1 = 0.154	1002.59	998.9	994.35	988.41
m1 = 0.3076	1006.3	1002.6	997.53	990.95
m1 = 0.5023	1010.81	1006.62	1001.55	994.25
m1 = 0.6255	1013.9	1009.13	1003.9	996.3
m1 = 0.7024	1015.42	1010.54	1005.28	997.49
m1 = 0.8838	1020.02	1014	1008.57	1000.18
m1 = 1.071	1024.02	1017.44	1012.23	1002.98
m1 = 1.284	1028.91	1021.24	1015.5	1005.89
m1 = 1.544	1034.22	1026.15	1020.01	1009
